In patent US20260334439A1, “BCAT2 INHIBITORS” (Agios Pharmaceuticals, Inc., priority 2023, published 2026):

Tests used:
[1] = molecular target: T1, BCAT2 (Homo sapiens, UniProt O15382); assay: BCAT2 in vitro enzyme inhibition assay (hBCAT2, glutamate dehydrogenase/diaphorase/resazurin coupled fluorescence read); assay type: biochemical; conditions: hBCAT2, 1 h preincubation at 25° C., one hour reaction; average where tested multiple times
T1 sequence (O15382 28-392): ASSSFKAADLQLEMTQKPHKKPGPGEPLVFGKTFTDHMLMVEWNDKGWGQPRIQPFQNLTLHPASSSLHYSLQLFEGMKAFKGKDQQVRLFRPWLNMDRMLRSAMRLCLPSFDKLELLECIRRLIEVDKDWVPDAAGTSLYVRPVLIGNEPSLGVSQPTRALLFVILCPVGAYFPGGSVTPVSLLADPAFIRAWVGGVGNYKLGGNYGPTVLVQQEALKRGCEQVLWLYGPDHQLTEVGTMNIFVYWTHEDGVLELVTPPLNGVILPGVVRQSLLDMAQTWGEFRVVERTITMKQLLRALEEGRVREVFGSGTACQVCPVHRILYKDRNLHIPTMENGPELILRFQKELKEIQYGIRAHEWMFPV
Procedure, shortened: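 hBCAT2 (0.33 μg/mL in mix) preincubated 1 h at 25 °C with compound (top 100 μM, 3-fold, 10 points) in Tris pH 8.0/NaCl/BSA; substrate mix added (L-leucine, α-ketoglutarate, GDH, NAD, diaphorase, resazurin), quenched with SDS after 1 h, fluorescence Ex 540/Em 590; duplicates, repeat tests averaged.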

[2] = molecular target: T1, BCAT2; assay: BCAT2 cell inhibition using engineered A549 cells (MUT KO, BCAT1 KO; 13C6-KMV formation by LC-MS/MS); assay type: cell-based; parameters: expressed endogenous BCAT2; endogenous in cells; host or cells: A549 cells, MUT knockout and BCAT1 knockout
Procedure, shortened: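 Medium 13C6-KMV formation is read by LC-MS/MS after PFBHA derivatization with d8-KMV internal standard. Cells are CRISPR MUT/BCAT1 double-knockout A549 expressing endogenous BCAT2, given compound 15 min before labelled isoleucine (800 uM, added 1:1) for 24 h. CTG viability run in parallel; replicates averaged.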

With `Cc1coc(-c2cc3c(cn2)nc(-c2ccccc2OCCO)n3[C@@H]2CCC[C@H](N3Cc4ccc(F)cc4C3=O)C2)n1` [Example 181, 6-fluoro-2-((1S,3R)-3-(2-(2-(2-hydroxyethoxy)phenyl)-6-(4-methyloxazol-2-yl)-1H-imidazo[4,5-c]pyridin-1-yl)cyclohexyl)isoindolin-1-one] the IC50 [1] was < 100 nM and the IC50 [2] was < 100 nM.
`O=C1c2ccc(F)cc2C(=O)N1[C@H]1CCC[C@@H](n2c(-c3ccccc3F)nc3cnc(-c4nc[nH]n4)cc32)C1` [Example 182, 5-fluoro-2-((1S,3R)-3-(2-(2-fluorophenyl)-6-(1H-1,2,4-triazol-3-yl)-1H-imidazo[4,5-c]pyridin-1-yl)cyclohexyl)isoindoline-1,3-dione] was tested, and the IC50 [1] was < 100 nM and the IC50 [2] was < 100 nM.
`O=C1c2cc(Cl)ccc2CN1[C@H]1CCC[C@@H](n2c(-c3ccccc3F)nc3cnc(-c4nc[nH]n4)cc32)[C@@H]1O` [Example 183, 6-chloro-2-((1S,2S,3R)-3-(2-(2-fluorophenyl)-6-(1H-1,2,4-triazol-3-yl)-1H-imidazo[4,5-c]pyridin-1-yl)-2-hydroxycyclohexyl)isoindolin-1-one] was tested, and the IC50 [1] was < 100 nM and the IC50 [2] was < 100 nM.
With `O=C1c2cc(F)ccc2CN1[C@H]1CCC[C@@H](n2c(-c3ccccc3F)nc3cnc(-c4nc[nH]n4)cc32)[C@@H]1O` [Example 184, 6-fluoro-2-((1S,2S,3R)-3-(2-(2-fluorophenyl)-6-(1H-1,2,4-triazol-3-yl)-1H-imidazo[4,5-c]pyridin-1-yl)-2-hydroxycyclohexyl)isoindolin-1-one] the IC50 [1] was < 100 nM and the IC50 [2] was < 100 nM.
For `O=C1c2cc(F)ccc2CN1[C@H]1CCC[C@@H](n2c(-c3ccccc3F)nc3cnc(-n4nccn4)cc32)[C@@H]1O` [Example 185, 6-fluoro-2-((1S,2S,3R)-3-(2-(2-fluorophenyl)-6-(2H-1,2,3-triazol-2-yl)-1H-imidazo[4,5-c]pyridin-1-yl)-2-hydroxycyclohexyl)isoindolin-1-one], the IC50 [1] was < 100 nM and the IC50 [2] was < 100 nM.
`O=C1c2cc(F)ccc2CN1[C@H]1CCC[C@@H](n2c(-c3c(F)cccc3F)nc3cnc(-n4nccn4)cc32)[C@@H]1O` [Example 186, 2-((1S,2S,3R)-3-(2-(2,6-difluorophenyl)-6-(2H-1,2,3-triazol-2-yl)-1H-imidazo[4,5-c]pyridin-1-yl)-2-hydroxycyclohexyl)-6-fluoroisoindolin-1-one] was tested, and the IC50 [1] was < 100 nM and the IC50 [2] was < 100 nM.
In the case of `O=C1c2cc(F)ccc2CN1[C@H]1CCC[C@@H](n2c(-c3c(F)cccc3F)nc3cnc(-c4ncccn4)cc32)[C@@H]1O` [Example 187, 2-((1S,2S,3R)-3-(2-(2,6-difluorophenyl)-6-(pyrimidin-2-yl)-1H-imidazo[4,5-c]pyridin-1-yl)-2-hydroxycyclohexyl)-6-fluoroisoindolin-1-one], the IC50 [1] is reported as < 100 nM and the IC50 [2] is reported as 100 to 500 nM.
With `CO[C@H]1C[C@H](N2Cc3ccc(F)cc3C2=O)C[C@H](n2c(-c3c(O)cccc3F)nc3cnc(-c4nc[nH]n4)cc32)C1` [Example 192, 6-fluoro-2-((1R,3S,5R)-3-(2-(2-fluoro-6-hydroxyphenyl)-6-(1H-1,2,4-triazol-3-yl)-1H-imidazo[4,5-c]pyridin-1-yl)-5-methoxycyclohexyl)isoindolin-1-one] the IC50 [1] was < 100 nM and the IC50 [2] was 100 to 500 nM.
`CO[C@H]1C[C@H](N2Cc3ccc(F)cc3C2=O)C[C@H](n2c(-c3ccccc3OCCO)nc3ccc(-c4ncccn4)cc32)C1` [Example 194, 6-fluoro-2-((1R,3S,5R)-3-(2-(2-(2-hydroxyethoxy)phenyl)-6-(pyrimidin-2-yl)-1H-benzo[d]imidazol-1-yl)-5-methoxycyclohexyl)isoindolin-1-one] was tested, and the IC50 [1] was < 100 nM and the IC50 [2] was < 100 nM.
In the case of `CO[C@@H]1C[C@H](N2Cc3ccc(F)cc3C2=O)C[C@H](n2c(-c3ccccc3F)nc3cnc(-c4nc[nH]n4)cc32)C1` [Example 195, 6-fluoro-2-((1R,3S,5S)-3-(2-(2-fluorophenyl)-6-(1H-1,2,4-triazol-3-yl)-1H-imidazo[4,5-c]pyridin-1-yl)-5-methoxycyclohexyl)isoindolin-1-one], the IC50 [1] is reported as < 100 nM and the IC50 [2] is reported as < 100 nM.
In the case of `CC(=O)N1C[C@H](N2Cc3ccc(F)cc3C2=O)C[C@H](n2c(-c3ccccc3F)nc3cnc(-n4nccn4)cc32)C1` [Example 200, 2-((3R,5S)-1-acetyl-5-(2-(2-fluorophenyl)-6-(2H-1,2,3-triazol-2-yl)-1H-imidazo[4,5-c]pyridin-1-yl)piperidin-3-yl)-6-fluoroisoindolin-1-one], the IC50 [1] is reported as < 100 nM and the IC50 [2] is reported as < 100 nM.
`CC(=O)N1CC(N2Cc3ccc(F)cc3C2=O)CC(n2c(-c3c(F)cccc3F)nc3cnc(-c4nc[nH]n4)cc32)C1` (stereo not drawn) [Example 201, 2-(1-acetyl-5-(2-(2,6-difluorophenyl)-6-(1H-1,2,4-triazol-3-yl)-1H-imidazo[4,5-c]pyridin-1-yl)piperidin-3-yl)-6-fluoroisoindolin-1-one] was tested, and the IC50 [1] was < 100 nM and the IC50 [2] was < 100 nM.
In the case of `O=C1c2cc(Cl)ccc2OCN1[C@H]1CCC[C@@H](n2c(-c3ccccc3F)nc3cnc(-c4nc[nH]n4)cc32)C1` [Example 202, 6-chloro-3-((1S,3R)-3-(2-(2-fluorophenyl)-6-(1H-1,2,4-triazol-3-yl)-1H-imidazo[4,5-c]pyridin-1-yl)cyclohexyl)-2,3-dihydro-4H-benzo[e][1,3]oxazin-4-one], the IC50 [1] is reported as < 100 nM and the IC50 [2] is reported as < 100 nM.
In the case of `O=C1c2cc(F)ccc2OCN1[C@H]1CCC[C@@H](n2c(-c3ccccc3F)nc3cnc(-c4nc[nH]n4)cc32)C1` [Example 204, 6-fluoro-3-((1S,3R)-3-(2-(2-fluorophenyl)-6-(1H-1,2,4-triazol-3-yl)-1H-imidazo[4,5-c]pyridin-1-yl)cyclohexyl)-2,3-dihydro-4H-benzo[e][1,3]oxazin-4-one], the IC50 [1] is reported as < 100 nM and the IC50 [2] is reported as < 100 nM.
`O=C1c2cc(Cl)ccc2NCN1[C@H]1CCC[C@@H](n2c(-c3ccccc3F)nc3cnc(-c4nc[nH]n4)cc32)C1` [Example 206, 6-chloro-3-((1S,3R)-3-(2-(2-fluorophenyl)-6-(1H-1,2,4-triazol-3-yl)-1H-imidazo[4,5-c]pyridin-1-yl)cyclohexyl)-2,3-dihydroquinazolin-4(1H)-one] was tested, and the IC50 [1] was < 100 nM and the IC50 [2] was < 100 nM.
`O=C1c2cc(F)ccc2NCN1[C@H]1CCC[C@@H](n2c(-c3ccccc3F)nc3cnc(-c4nc[nH]n4)cc32)C1` [Example 208, 6-fluoro-3-((1S,3R)-3-(2-(2-fluorophenyl)-6-(1H-1,2,4-triazol-3-yl)-1H-imidazo[4,5-c]pyridin-1-yl)cyclohexyl)-2,3-dihydroquinazolin-4(1H)-one] was tested, and the IC50 [1] was < 100 nM and the IC50 [2] was < 100 nM.
`O=c1c2cc(F)ccc2ncn1[C@H]1CCC[C@@H](n2c(-c3ccccc3F)nc3cnc(-c4nc[nH]n4)cc32)C1` [Example 209, 6-fluoro-3-((1S,3R)-3-(2-(2-fluorophenyl)-6-(1H-1,2,4-triazol-3-yl)-1H-imidazo[4,5-c]pyridin-1-yl)cyclohexyl)quinazolin-4(3H)-one] was tested, and the IC50 [1] was < 100 nM and the IC50 [2] was < 100 nM.
For `O=C1c2cc(F)ccc2CCN1[C@H]1CCC[C@@H](n2c(-c3ccccc3F)nc3cnc(-c4nc[nH]n4)cc32)C1` [Example 212, 7-fluoro-2-((1S,3R)-3-(2-(2-fluorophenyl)-6-(1H-1,2,4-triazol-3-yl)-1H-imidazo[4,5-c]pyridin-1-yl)cyclohexyl)-3,4-dihydroisoquinolin-1(2H)-one], the IC50 [1] was < 100 nM and the IC50 [2] was < 100 nM.
